# According to US9353152B2, “Induction of the mitochondrial permeability transition” (NewSouth Innovations Pty Limited, priority 2002, dated 2016):
# Tests used:
# [1] = system: BAE cells; assay: ATP assay (luciferin/luciferase); type: cell-based, bovine; conditions: 150 μM GSAO, 24 h
# Experimental: BAE cells in six-well culture plates were arrested for 24 h in 0.5% serum or left in 10% serum, then treated for 24 h with 0, 60 or 150 μM GSAO. The cells were washed once then resuspended in 0.4 mL PBS containing 0.3% bovine serum albumin. A 50 μl sample of cells was mixed with 50 μL water and 100 μL ATP releasing agent (Sigma) and ATP concentration was measured using a luciferin/luciferase ATP assay mix (Sigma). Light units were converted to ATP concentrations using an ATP standard in place of the 50 μL water. Cell number was counted using a Beckman Coulter Counter and mol of ATP was expressed per million cells.
# [2] = system: BAE cells; type: cell-based, bovine
# [3] = system: bovine vascular smooth muscle cells; assay: Proliferation arrest; type: cell-based
# Experimental: To distinguish between the anti-proliferative and pro-apoptotic effects of GSAO, treated cells were stained with propidium iodide (PI) to detect late-apoptotic or dead cells. The total number of cells and the proportion of cells that were PI-positive following 48 h treatment with GSAO were measured by flow cytometry.
# [4] = system: BxPC-3 tumours; assay: Primary tumour growth assay; type: in vivo, SCID mice; conditions: 10 mg/kg/day s.c., SCID mice, BxPC-3
# Experimental: (§1) Female 7 to 9 week old SCID or C57Bl6/J mice were used (Massachusetts General Hospital, Boston, Mass.). Mice were held in groups of 3 to 5 at a 12 hour day and night cycle and were given animal chow and water ad libidum. SCID or C57Bl6/J mice were anaesthetised by inhalation of isoflurane, the dorsal skin shaved and cleaned with ethanol, and a suspension of 2.5×10^6 BxPC-3, HT1080 or LLC cells in 0.2 mL of PBS, or saline for LLC cells, was injected S.C. in the proximal midline. LLC cells were prepared according to O'Reilly et al. (1997). Tumour volume was calculated using the relationship, a·b^2·0.52, where a is the longest and b the shortest diameter.
# [5] = system: BxPC-3 tumours; assay: Immunohistochemistry of tumour sections (CD31, PCNA, TUNEL); type: in vivo, SCID mice; conditions: day 31, GSAO- versus GSAA-treated tumours
# Excerpt: Tumours were fixed in Buffered Formalde-Fresh (Fisher Scientific, Fair Lawn, N.J.), embedded in paraffin and 5 μm thick sections were cut and placed on glass slides. Sections were stained with haematoxylin and eosin or for CD31, PCNA (Holmgren et al., 1995) or fragmented DNA (Gavrielli et al., 1992). […] The proliferative index was estimated by the percentage of cells scored under 400× magnification. A minimum of 1000 cells was counted in two separate sections. The apoptotic index was estimated by the percentage of cells scored under 400× magnification. A minimum of 1500 cells was counted in two separate sections.
# [6] = Tolerability in tumour-bearing mice; type: in vivo, SCID or C57Bl6/J mice
# Experimental: as §1
# [7] = system: BAE cells; assay: Cell proliferation and viability assay (MTT); type: cell-based, bovine; conditions: 10% serum, 48 h; read-out: IC50 for proliferation arrest of BAE cells
# Experimental: (§2) BAE or human pancreatic carcinoma BxPC-3 cells were seeded at a density of 10^3 cells per well into 96 well plates in DMEM containing 10% foetal bovine serum and allowed to adhere for 24 h. Cells were washed and incubated with DMEM containing 10% foetal bovine serum and GSAO or o-GSAO and cultured for a further 48 h. Some BAE cells were arrested for 24 h in medium containing 0.25% serum and cultured for a further 48 h in medium containing 0.25% or 10% serum, in the presence of GSAO or o-GSAO. Viable attached cells were determined using MTT.
# [8] = system: human pancreatic carcinoma BxPC-3 cells; assay: Cell proliferation and viability assay (MTT); type: cell-based; conditions: 10% serum, 48 h; read-out: IC50 for proliferation arrest of BxPC-3 cells
# Experimental: as §2
# [9] = Side-effects in Balb-C nude mice bearing BxPC-3 tumours; type: in vivo; conditions: 1 or 10 mg/kg/day s.c.
# Experimental: Female 7 to 9 week old Balb C nude were used (UNSW Biological Resource Centre). Mice were held in groups of 3 to 5 at a 12 h day and night cycle and were given animal chow and water ad libidum. A suspension of 2.5×10^6 BxPC-3 cells in 0.2 mL of PBS was injected subcutaneously in the proximal midline. Tumours were allowed to establish and grow to a size of ˜40 mm^3 after which they were randomised into four groups. Tumour volume was calculated using the relationship, a·b^2·0.52, where a is the longest and b the shortest diameter. Animals were treated with either GSAO or o-GSAO at a dose 1 or 10 mg/kg/day in 0.1 mL of PBS. The compounds were administered subcutaneously at a site distant from the tumour. Tumour volume and animal weight was measured every 2 or 3 days.
# Balb-C nude mice bearing ˜40 mm^3 BxPC-3 tumours were randomised into four groups (n=10 or 11 per group) and treated subcutaneously with either GSAO (part A) or o-GSAO (part B) at 1 or 10 mg/kg/day in 0.1 mL of PBS. Parts C and D are the mice weights for the respective groups, where the arrow indicates start of treatment. The data points are the mean±SE of the tumour volumes or mice weights. Treatment with 10 mg/kg o-GSAO (part B) was stopped at day 14 due to necrosis and inflammation at sites of injection in 7 out of 11 mice (3/11 with severe ulcers, 4/11 with medium ulcers).
smiles,measurement,setting,value
"N[C@@H](CCC(=O)N[C@@H](CSCC(=O)Nc1ccc([As]=O)cc1)C(=O)NCC(=O)O)C(=O)O (stereo partly drawn) [GSAO, 4-(N—(S-glutathionylacetyl)amino)-phenylarsenoxide]",cellular ATP levels in proliferating BAE cells,[1],reduced ATP levels in proliferating cells to that of growth-quiescent cells
same,cellular levels of O2^− versus concentration,[2],"increased linearly with GSAO concentration in proliferating, but not growth-quiescent, BAE cells"
same,decrease in H2O2,[2],30%
same,increase in the level of O2^−,[2],100%
same,IC50,[3],~30 µM
same,inhibition of the rate of tumour growth,[4],> 90%
same,proliferative index (PCNA),[5],the same
same,blood vessel density (CD31),[5]; p<0.001,significant reduction
same,apoptotic index (TUNEL),[5]; p=0.05,significant increase
same,adverse affects of administration,[6]; 10 mg/kg/day s.c.,no apparent adverse affects
same,"morphological changes in the heart, lungs, liver, kidneys, and spleen",[6]; 10 mg/kg/day s.c.,no morphological changes
same,average mice weights over the course of the experiments,[6]; GSAO versus GSAA treatment groups,the same
same,IC50,[7],8.3 ± 2.1 µM
same,IC50,[8],> 300 µM
same,"side-effects (behavioural, skin necrosis, weight loss) with GSAO administration",[9],not observed
